In ChEMBL document CHEMBL4507297, “Data for DCP probe PF-04457845” (2021):

How the values were obtained:
[1] = target: Leukocyte tyrosine kinase receptor (Homo sapiens) (UniProt P29376); details: Compound concentration 1000.0 nM
[2] = target: Dual specificity protein kinase CLK2 (Homo sapiens) (UniProt P49760); details: Compound concentration 1000.0 nM
[3] = target: Serine/threonine-protein kinase SIK3 (Homo sapiens) (UniProt Q9Y2K2); details: Compound concentration 1000.0 nM
[4] = target: Inhibitor of nuclear factor kappa-B kinase subunit alpha (Homo sapiens) (UniProt O15111); details: Compound concentration 1000.0 nM
[5] = target: Tyrosine-protein kinase receptor Tie-1 (Homo sapiens) (UniProt P35590); details: Compound concentration 1000.0 nM
[6] = target: Mitogen-activated protein kinase 11 (Homo sapiens) (UniProt Q15759); details: Compound concentration 1000.0 nM
[7] = target: Dual specificity protein kinase CLK3 (Homo sapiens) (UniProt P49761); details: Compound concentration 1000.0 nM
Sequence of Dual specificity protein kinase CLK3 (Homo sapiens) (P49761 whole entry, looked up): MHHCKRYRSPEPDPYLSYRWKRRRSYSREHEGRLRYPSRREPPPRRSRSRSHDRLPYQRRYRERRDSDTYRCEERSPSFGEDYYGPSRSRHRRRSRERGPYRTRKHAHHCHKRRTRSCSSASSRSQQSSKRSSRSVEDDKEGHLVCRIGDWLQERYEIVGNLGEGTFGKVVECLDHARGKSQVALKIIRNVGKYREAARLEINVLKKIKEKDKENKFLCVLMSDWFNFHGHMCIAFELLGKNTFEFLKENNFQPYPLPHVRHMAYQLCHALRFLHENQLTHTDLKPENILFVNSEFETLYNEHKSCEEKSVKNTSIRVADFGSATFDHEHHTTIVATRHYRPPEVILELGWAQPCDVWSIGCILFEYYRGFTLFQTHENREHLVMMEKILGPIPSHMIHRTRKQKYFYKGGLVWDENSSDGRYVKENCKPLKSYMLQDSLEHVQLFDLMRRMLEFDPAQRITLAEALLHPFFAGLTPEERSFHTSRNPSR

[8] = target: Glycogen synthase kinase-3 beta (Homo sapiens) (UniProt P49841); details: Compound concentration 1000.0 nM
[9] = target: Serine/threonine-protein kinase Nek2 (Homo sapiens) (UniProt P51955); details: Compound concentration 1000.0 nM
[10] = target: Wee1-like protein kinase (Homo sapiens) (UniProt P30291); details: Compound concentration 1000.0 nM
[11] = test system: Epidermal growth factor receptor (Homo sapiens), P00533 [G719C]; details: Compound concentration 1000.0 nM
[12] = target: Phosphatidylinositol 5-phosphate 4-kinase type-2 beta (Homo sapiens) (UniProt P78356); details: Compound concentration 1000.0 nM
Sequence of Phosphatidylinositol 5-phosphate 4-kinase type-2 beta (Homo sapiens) (P78356 whole entry): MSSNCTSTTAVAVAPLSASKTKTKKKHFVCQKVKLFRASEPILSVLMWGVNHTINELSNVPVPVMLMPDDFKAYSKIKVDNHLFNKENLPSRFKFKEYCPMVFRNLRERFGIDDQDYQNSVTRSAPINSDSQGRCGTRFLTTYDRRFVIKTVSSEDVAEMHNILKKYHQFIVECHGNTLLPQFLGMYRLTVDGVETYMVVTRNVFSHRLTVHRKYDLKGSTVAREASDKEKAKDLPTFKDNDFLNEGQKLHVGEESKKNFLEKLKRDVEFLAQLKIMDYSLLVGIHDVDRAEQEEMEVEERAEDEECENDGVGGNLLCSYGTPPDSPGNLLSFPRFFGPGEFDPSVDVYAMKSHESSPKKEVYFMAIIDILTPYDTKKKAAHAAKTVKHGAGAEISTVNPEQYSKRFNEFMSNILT

[13] = target: Tyrosine-protein kinase ABL1 (Homo sapiens) (UniProt P00519); details: Compound concentration 1000.0 nM
Sequence of Tyrosine-protein kinase ABL1 (Homo sapiens) (P00519 whole entry): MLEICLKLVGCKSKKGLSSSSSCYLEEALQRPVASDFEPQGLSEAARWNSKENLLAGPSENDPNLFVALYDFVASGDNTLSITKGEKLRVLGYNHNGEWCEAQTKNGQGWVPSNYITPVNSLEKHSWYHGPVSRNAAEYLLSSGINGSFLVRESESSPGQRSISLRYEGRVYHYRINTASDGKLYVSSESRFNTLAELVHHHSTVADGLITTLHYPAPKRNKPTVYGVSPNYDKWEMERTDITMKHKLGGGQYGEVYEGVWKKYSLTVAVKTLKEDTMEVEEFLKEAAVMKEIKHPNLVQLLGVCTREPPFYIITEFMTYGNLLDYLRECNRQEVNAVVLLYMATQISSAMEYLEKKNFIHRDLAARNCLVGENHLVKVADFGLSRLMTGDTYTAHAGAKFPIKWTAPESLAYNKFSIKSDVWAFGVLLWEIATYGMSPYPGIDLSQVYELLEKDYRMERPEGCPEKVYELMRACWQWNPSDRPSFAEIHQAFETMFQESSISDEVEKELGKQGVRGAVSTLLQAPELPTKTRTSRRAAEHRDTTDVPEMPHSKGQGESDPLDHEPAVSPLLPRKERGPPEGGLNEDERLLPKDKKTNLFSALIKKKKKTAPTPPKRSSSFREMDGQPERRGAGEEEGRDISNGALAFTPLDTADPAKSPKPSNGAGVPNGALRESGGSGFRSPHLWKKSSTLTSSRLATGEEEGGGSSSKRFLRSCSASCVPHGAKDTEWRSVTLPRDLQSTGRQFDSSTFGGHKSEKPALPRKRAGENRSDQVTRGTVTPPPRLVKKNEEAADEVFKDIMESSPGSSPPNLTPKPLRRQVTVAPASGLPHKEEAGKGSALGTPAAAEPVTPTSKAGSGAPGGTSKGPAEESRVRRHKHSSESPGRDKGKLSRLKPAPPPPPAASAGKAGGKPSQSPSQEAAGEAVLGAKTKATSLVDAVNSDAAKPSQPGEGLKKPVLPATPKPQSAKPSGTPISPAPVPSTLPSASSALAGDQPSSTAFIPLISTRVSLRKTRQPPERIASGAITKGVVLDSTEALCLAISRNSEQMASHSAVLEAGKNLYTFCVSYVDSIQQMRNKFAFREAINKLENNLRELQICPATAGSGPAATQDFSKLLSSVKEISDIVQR

[14] = target: Serine/threonine-protein kinase PknB (Mycobacterium tuberculosis) (UniProt P9WI81); details: Compound concentration 1000.0 nM
Sequence of Serine/threonine-protein kinase PknB (Mycobacterium tuberculosis) (P9WI81 whole entry): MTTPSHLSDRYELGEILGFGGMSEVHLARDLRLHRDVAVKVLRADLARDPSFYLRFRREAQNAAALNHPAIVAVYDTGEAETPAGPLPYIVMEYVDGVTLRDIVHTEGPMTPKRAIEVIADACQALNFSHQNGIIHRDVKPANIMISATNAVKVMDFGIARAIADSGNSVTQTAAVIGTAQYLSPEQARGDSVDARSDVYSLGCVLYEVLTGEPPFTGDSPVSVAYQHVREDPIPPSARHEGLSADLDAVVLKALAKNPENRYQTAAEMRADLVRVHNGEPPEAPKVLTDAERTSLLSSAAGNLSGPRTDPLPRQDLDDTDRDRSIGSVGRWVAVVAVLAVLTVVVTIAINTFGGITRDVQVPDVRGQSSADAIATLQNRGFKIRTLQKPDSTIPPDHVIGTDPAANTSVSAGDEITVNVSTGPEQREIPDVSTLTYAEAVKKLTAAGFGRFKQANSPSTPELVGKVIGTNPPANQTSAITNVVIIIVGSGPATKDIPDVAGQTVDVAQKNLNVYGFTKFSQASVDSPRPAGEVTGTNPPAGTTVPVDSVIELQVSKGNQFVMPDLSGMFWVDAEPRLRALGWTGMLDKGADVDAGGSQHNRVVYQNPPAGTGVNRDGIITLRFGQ

[15] = target: Tyrosine-protein kinase ABL1 (Homo sapiens) (UniProt P00519); details: Compound concentration 1000.0 nM; remark: listed apart in the source
[16] = target: Dual specificity protein kinase TTK (Homo sapiens) (UniProt P33981); details: Compound concentration 1000.0 nM
[17] = target: Cyclin-dependent kinase 4 (Homo sapiens) (UniProt P11802); details: Compound concentration 1000.0 nM
[18] = test system: Mast/stem cell growth factor receptor Kit (Homo sapiens), P10721 [V559D,T670I]; details: Compound concentration 1000.0 nM
Sequence of Mast/stem cell growth factor receptor Kit (Homo sapiens), P10721 [V559D,T670I] (P10721 whole entry V559D/T670I, canonical isoform): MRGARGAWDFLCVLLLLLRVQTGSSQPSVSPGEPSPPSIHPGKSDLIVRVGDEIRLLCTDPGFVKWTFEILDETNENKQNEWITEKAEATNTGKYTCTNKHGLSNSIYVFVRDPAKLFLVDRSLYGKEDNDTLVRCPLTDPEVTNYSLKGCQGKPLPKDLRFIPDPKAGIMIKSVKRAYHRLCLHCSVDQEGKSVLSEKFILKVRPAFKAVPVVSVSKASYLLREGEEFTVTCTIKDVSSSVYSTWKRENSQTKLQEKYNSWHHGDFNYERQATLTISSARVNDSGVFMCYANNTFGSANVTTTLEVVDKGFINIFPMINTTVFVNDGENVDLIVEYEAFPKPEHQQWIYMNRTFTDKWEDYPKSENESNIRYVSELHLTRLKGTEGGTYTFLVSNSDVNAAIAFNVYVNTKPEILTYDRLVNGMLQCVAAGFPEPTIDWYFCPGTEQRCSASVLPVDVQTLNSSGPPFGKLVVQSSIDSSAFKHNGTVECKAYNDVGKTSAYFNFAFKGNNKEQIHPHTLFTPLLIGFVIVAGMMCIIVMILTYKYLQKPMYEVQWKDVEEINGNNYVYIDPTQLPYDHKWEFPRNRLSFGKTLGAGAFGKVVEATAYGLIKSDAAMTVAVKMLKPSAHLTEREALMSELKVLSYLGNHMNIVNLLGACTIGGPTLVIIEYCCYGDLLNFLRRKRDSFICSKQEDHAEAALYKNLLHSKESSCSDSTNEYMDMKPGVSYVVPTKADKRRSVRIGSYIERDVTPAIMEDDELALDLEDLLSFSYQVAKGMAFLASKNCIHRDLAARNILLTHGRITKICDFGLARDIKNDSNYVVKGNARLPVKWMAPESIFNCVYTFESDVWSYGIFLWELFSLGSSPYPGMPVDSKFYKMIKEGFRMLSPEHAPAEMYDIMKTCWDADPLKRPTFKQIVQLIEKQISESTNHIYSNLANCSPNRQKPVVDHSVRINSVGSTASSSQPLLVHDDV

[19] = test system: Phosphatidylinositol 4,5-bisphosphate 3-kinase catalytic subunit alpha isoform (Homo sapiens), P42336 [M1043I]; details: Compound concentration 1000.0 nM
[20] = target: Receptor tyrosine-protein kinase erbB-4 (Homo sapiens) (UniProt Q15303); details: Compound concentration 1000.0 nM
[21] = target: Ribosomal protein S6 kinase alpha-4 (Homo sapiens) (UniProt O75676); details: Compound concentration 1000.0 nM
[22] = target: Serine/threonine-protein kinase N1 (Homo sapiens) (UniProt Q16512); details: Compound concentration 1000.0 nM
Sequence of Serine/threonine-protein kinase N1 (Homo sapiens) (Q16512 2-942 limits assumed): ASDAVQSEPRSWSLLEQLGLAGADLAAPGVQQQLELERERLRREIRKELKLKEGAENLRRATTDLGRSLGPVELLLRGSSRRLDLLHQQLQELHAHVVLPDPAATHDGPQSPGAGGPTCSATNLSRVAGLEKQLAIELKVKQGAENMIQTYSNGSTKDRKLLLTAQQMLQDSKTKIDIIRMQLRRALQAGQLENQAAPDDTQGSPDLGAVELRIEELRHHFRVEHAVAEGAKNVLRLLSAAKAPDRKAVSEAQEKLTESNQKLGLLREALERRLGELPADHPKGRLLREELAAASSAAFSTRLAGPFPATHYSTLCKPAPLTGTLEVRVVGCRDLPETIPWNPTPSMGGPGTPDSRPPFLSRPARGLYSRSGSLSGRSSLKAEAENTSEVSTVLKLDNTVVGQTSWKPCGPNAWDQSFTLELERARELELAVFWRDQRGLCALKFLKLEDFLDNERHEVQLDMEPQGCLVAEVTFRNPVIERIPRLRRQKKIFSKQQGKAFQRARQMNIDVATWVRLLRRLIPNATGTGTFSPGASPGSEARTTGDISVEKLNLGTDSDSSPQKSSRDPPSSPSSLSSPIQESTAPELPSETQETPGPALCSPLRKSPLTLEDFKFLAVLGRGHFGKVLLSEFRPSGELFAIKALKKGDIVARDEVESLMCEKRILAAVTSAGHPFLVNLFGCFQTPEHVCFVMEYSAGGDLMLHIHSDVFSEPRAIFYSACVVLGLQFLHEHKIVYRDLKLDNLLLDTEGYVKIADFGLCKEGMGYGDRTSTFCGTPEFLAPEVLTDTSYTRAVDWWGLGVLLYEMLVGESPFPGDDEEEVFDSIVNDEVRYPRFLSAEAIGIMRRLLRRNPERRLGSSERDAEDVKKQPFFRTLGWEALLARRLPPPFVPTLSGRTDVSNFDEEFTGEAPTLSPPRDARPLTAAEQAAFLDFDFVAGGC

[23] = test system: Phosphatidylinositol 4,5-bisphosphate 3-kinase catalytic subunit alpha isoform (Homo sapiens), P42336 [E542K]; details: Compound concentration 1000.0 nM
[24] = target: Alpha-2C adrenergic receptor (Homo sapiens) (UniProt P18825); details: Compound concentration 10.0 uM
[25] = target: Mitogen-activated protein kinase 4 (Homo sapiens) (UniProt P31152); details: Compound concentration 1000.0 nM
[26] = test system: Tyrosine-protein kinase ABL1 (Homo sapiens), P00519 [F317I]; details: Compound concentration 1000.0 nM
Sequence of Tyrosine-protein kinase ABL1 (Homo sapiens), P00519 [F317I] (P00519 whole entry F317I): as the sequence (P00519 whole entry) above, with F317I counted along it

[27] = test system: Epidermal growth factor receptor (Homo sapiens), P00533 [UNDEFINED MUTATION]; details: Compound concentration 1000.0 nM
[28] = target: STE20-like serine/threonine-protein kinase (Homo sapiens) (UniProt Q9H2G2); details: Compound concentration 1000.0 nM
[29] = target: Serine/threonine-protein kinase Nek11 (Homo sapiens) (UniProt Q8NG66); details: Compound concentration 1000.0 nM
[30] = target: Serine/threonine-protein kinase pim-3 (Homo sapiens) (UniProt Q86V86); details: Compound concentration 1000.0 nM
[31] = target: Epidermal growth factor receptor (Homo sapiens) (UniProt P00533); details: Compound concentration 1000.0 nM
[32] = target: Serine/threonine-protein kinase TAO2 (Homo sapiens) (UniProt Q9UL54); details: Compound concentration 1000.0 nM
[33] = target: Mitogen-activated protein kinase 10 (Homo sapiens) (UniProt P53779); details: Compound concentration 1000.0 nM
[34] = target: MAP/microtubule affinity-regulating kinase 4 (Homo sapiens) (UniProt Q96L34); details: Compound concentration 1000.0 nM
[35] = target: Tyrosine-protein kinase Srms (Homo sapiens) (UniProt Q9H3Y6); details: Compound concentration 1000.0 nM
[36] = test system: ALK tyrosine kinase receptor (Homo sapiens), Q9UM73 [L1196M]; details: Compound concentration 1000.0 nM
[37] = target: Mitogen-activated protein kinase 15 (Homo sapiens) (UniProt Q8TD08); details: Compound concentration 1000.0 nM
[38] = target: Ephrin type-B receptor 4 (Homo sapiens) (UniProt P54760); details: Compound concentration 1000.0 nM
[39] = target: Serine/threonine-protein kinase 32B (Homo sapiens) (UniProt Q9NY57); details: Compound concentration 1000.0 nM
Sequence of Serine/threonine-protein kinase 32B (Homo sapiens) (Q9NY57 whole entry): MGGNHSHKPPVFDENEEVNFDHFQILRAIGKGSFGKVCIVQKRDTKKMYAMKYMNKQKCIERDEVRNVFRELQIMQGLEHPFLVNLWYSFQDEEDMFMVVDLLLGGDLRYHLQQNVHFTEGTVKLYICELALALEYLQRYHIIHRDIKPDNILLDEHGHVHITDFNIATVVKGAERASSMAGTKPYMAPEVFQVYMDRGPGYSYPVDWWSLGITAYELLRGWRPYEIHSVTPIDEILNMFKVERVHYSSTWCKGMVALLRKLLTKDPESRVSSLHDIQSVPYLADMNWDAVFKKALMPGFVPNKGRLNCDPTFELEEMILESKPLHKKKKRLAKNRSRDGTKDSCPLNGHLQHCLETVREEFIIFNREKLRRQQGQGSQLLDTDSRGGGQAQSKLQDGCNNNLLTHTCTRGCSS

[40] = target: Muscle, skeletal receptor tyrosine-protein kinase (Homo sapiens) (UniProt O15146); details: Compound concentration 1000.0 nM
[41] = target: Ephrin type-A receptor 8 (Homo sapiens) (UniProt P29322); details: Compound concentration 1000.0 nM
[42] = target: MAP kinase-activated protein kinase 2 (Homo sapiens) (UniProt P49137); details: Compound concentration 1000.0 nM
[43] = test system: Mast/stem cell growth factor receptor Kit (Homo sapiens), P10721 [V559D,V654A]; details: Compound concentration 1000.0 nM
[44] = target: Mitogen-activated protein kinase 6 (Homo sapiens) (UniProt Q16659); details: Compound concentration 1000.0 nM
[45] = target: Phosphatidylinositol 4,5-bisphosphate 3-kinase catalytic subunit gamma isoform (Homo sapiens) (UniProt P48736); details: Compound concentration 1000.0 nM

Work on O=C(Nc1cccnn1)N1CC(C/C=C/c2cncc(Oc3ccc(C(F)(F)F)cn3)n2)C1 yielded a residual activity [1] of 100%, a residual activity [2] of 100% and a residual activity [3] of 74%. For the same molecule, the residual activity [4] was 69%, the residual activity [5] was 100% and the residual activity [6] was 100%. The residual activity [7] was 100%, the residual activity [8] was 77% and the residual activity [9] was 100%. For the same molecule, the residual activity [10] was 100%, the residual activity [11] was 100% and the residual activity [12] was 96%. It also gave a residual activity [13] of 87%, a residual activity [14] of 87% and a residual activity [15] of 82%. The residual activity [16] was 100%, the residual activity [17] was 94% and the residual activity [18] was 100%. It also gave a residual activity [19] of 100%, a residual activity [20] of 100% and a residual activity [21] of 100%. The residual activity [22] was 100%, the residual activity [23] was 88% and the inhibition [24] was 0.34%. It also gave a residual activity [25] of 100%, a residual activity [26] of 67% and a residual activity [27] of 100%. The residual activity [28] was 100%, the residual activity [29] was 100% and the residual activity [30] was 100%. For the same molecule, the residual activity [31] was 99%, the residual activity [32] was 66% and the residual activity [33] was 77%. It also gave a residual activity [34] of 100%, a residual activity [35] of 67% and a residual activity [36] of 82%. It also gave a residual activity [37] of 100%, a residual activity [38] of 100% and a residual activity [39] of 100%. The residual activity [40] was 97%, the residual activity [41] was 100% and the residual activity [42] was 100%. For the same molecule, the residual activity [43] was 100%, the residual activity [44] was 100% and the residual activity [45] was 100%.
In the case of O=C(Nc1cccnn1)N1CCC(=Cc2cccc(Oc3ccc(C(F)(F)F)cn3)c2)CC1, the residual activity [1] is reported as 74%, the residual activity [2] is reported as 66% and the residual activity [3] is reported as 83%. For the same molecule, the residual activity [4] was 93%, the residual activity [5] was 100% and the residual activity [6] was 83%. For the same molecule, the residual activity [7] was 100%, the residual activity [8] was 100% and the residual activity [9] was 100%. For the same molecule, the residual activity [10] was 97%, the residual activity [11] was 100% and the residual activity [12] was 83%. The residual activity [13] was 68%, the residual activity [14] was 95% and the residual activity [15] was 93%. For the same molecule, the residual activity [16] was 100%, the residual activity [17] was 96% and the residual activity [18] was 96%. It also gave a residual activity [19] of 65%, a residual activity [20] of 100% and a residual activity [21] of 98%. The residual activity [22] was 100%, the residual activity [23] was 65% and the inhibition [24] was 79.3%. For the same molecule, the residual activity [25] was 95%, the residual activity [26] was 100% and the residual activity [27] was 68%. For the same molecule, the residual activity [28] was 74%, the residual activity [29] was 100% and the residual activity [30] was 79%. It also gave a residual activity [31] of 100%, a residual activity [32] of 100% and a residual activity [33] of 100%. The residual activity [34] was 76%, the residual activity [35] was 95% and the residual activity [36] was 100%. It also gave a residual activity [37] of 83%, a residual activity [38] of 69% and a residual activity [39] of 82%. It also gave a residual activity [40] of 100%, a residual activity [41] of 100% and a residual activity [42] of 87%. It also gave a residual activity [43] of 100%, a residual activity [44] of 90% and a residual activity [45] of 100%.
